For five molecules, IC50 results are on record in patent US5278326A, “Substituted beta-ketoamide ACAT inhibitors” (Warner-Lambert Company, priority 1991, dated 1994).

Where only a bound is given, the exact number is not on record here.

The target of the assay is T1, acyl-CoA: cholesterol acyltransferase (ACAT) (Oryctolagus cuniculus, UniProt G1SFD9).
T1 construct: in a tissue preparation containing rabbit intestinal microsomes; from tissue; host or cells: rabbit intestinal microsomes
T1 sequence (G1SFD9 1-524): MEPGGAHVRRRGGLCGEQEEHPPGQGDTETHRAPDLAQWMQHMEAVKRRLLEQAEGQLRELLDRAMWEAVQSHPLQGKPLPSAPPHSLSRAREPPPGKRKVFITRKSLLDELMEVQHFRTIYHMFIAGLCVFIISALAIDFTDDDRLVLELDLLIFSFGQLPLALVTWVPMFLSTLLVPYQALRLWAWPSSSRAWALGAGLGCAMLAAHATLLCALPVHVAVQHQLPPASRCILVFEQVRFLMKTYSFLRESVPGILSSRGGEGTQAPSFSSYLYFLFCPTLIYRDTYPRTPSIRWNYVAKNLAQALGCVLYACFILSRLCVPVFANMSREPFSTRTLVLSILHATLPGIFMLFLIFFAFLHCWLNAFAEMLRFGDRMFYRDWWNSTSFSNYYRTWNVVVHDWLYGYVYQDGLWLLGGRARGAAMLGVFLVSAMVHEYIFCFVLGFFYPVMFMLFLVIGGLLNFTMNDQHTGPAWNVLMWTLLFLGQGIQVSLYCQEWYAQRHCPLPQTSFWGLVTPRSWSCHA
Description: in vitro inhibition of ACAT (radiolabeled cholesterol oleate formed from radiolabeled oleic acid, rabbit intestinal microsomes). In kind it is biochemical. As to conditions: tissue preparation containing rabbit intestinal microsomes, read-out: IC50 (concentration of test compound required to inhibit the activity of the enzyme by 50%). The method, then: The ability of representative compounds of the present invention to inhibit ACAT was measured using an in vitro test more fully described in F. J. Field and R. G. Salone, Biochemica et Biophysica 712:557-570 (1982). The test assesses the ability of a test compound to inhibit the acylation of cholesterol by oleic acid by measuring the amount of radiolabeled cholesterol oleate formed from radiolabeled oleic acid in a tissue preparation containing rabbit intestinal microsomes.
The data appear in Table 1 where they are expressed as IC50 values; i.e., the concentration of test compound required to inhibit the activity of the enzyme by 50%.
Consider `CC(C)c1cccc(C(C)C)c1NC(=O)CC(=O)CCCCCCCCCCCOC1CCCCO1` (centres unmarked) [Example 6, N-[2,6-bis(1-methylethyl)phenyl]-3-oxo-14-[(tetrahydro-2H-pyran-2-yl)oxy]-tetradecanamide], for which the IC50 stood at 57 nM.

With `CC(C)c1cccc(C(C)C)c1NC(=O)CC(=O)CCCCCCCCCCCO` [Example 7, N-[2,6-bis(1-methylethyl)phenyl]-14-hydroxy-3-oxo-tetradecanamide], the IC50 was found to be 230 nM.

For `CCCCCCCCCCCC(=O)C(C)(C)C(=O)N(C)c1c(OC)cc(OC)cc1OC` [Example 10, N,2,2-trimethyl-3-oxo-N-(2,4,6-trimethoxyphenyl)-tetradecanamide], the IC50 is over 1000 nM.

Turning to `CCCCCCCCNC(=O)CC(=O)c1ccc(F)cc1F` [Example 12, 2,4-difluoro-N-octyl-β-oxo-benzenepropanamide], the IC50 was over 1000 nM.

In the case of `CCCCCCCCNC(=O)CC(=O)c1c2ccccc2cc2ccccc12` [Example 13, N-octyl-β-oxo-9-anthracenepropanamide], the IC50 is over 1000 nM.
